From patent US8071612B2, “6-alkenyl and 6-phenylalkyl substituted 2-quinolinones and 2-quinoxalinones as poly(ADP-ribose) polymerase inhibitors” (Janssen Pharmaceutica, NV, priority 2004, dated 2011)

Assays:
[1] = target: T1, PARP-1 enzyme (Homo sapiens, UniProt P09874); experiment: In vitro Scintillation Proximity Assay (SPA) for PARP-1 inhibitory activity; assay type: biochemical; details: nicked DNA activated PARP-1, [3H]-NAD+, biotinylated histones; read-out: In vitro SPA pIC50 (converted)
T1 construct: made in house
Method: Compounds of the present invention were tested in an in vitro assay based on SPA technology (proprietary to Amersham Pharmacia Biotech).
In principle, the assay relies upon the well established SPA technology for the detection of poly(ADP-ribosyl)ation of biotinylated target proteins, i.e histones. This ribosylation is induced using nicked DNA activated PARP-1 enzyme and [^3H]-nicotinamide adenine dinucleotide ([^3H]-NAD^+) as ADP-ribosyl donor.
As inducer of PARP-1 enzyme activity, nicked DNA was prepared. For this, 25 mg of DNA (supplier: Sigma) was dissolved in 25 ml DNAse buffer (10 mM Tris-HCl, pH 7.4; 0.5 mg/ml Bovine Serum Albumine (BSA); 5 mM MgCl2.6H2O and 1 mM KCl) to which 50 μl DNAse solution (1 mg/ml in 0.15 M NaCl) was added. After an incubation of 90 min. at 37° C., the reaction was terminated by adding 1.45 g NaCl, followed by a further incubation at 58° C. for 15 min. The reaction mixture was cooled on ice and dialysed at 4° C. for respectively 1.5 and 2 hours against 1.5 l of 0.2 M KCl, and twice against 1.5 l of 0.01 M KCl for 1.5 and 2 h respectively. The mixture was aliquoted and stored at −20° C. Histones (1 mg/ml, type II-A, supplier: Sigma) were biotinylated using the biotinylation kit of Amersham and stored aliquoted at −20° C. A stock solution of 100 mg/ml SPA poly(vinyl toluene) (PVT) beads (supplier: Amersham) was made in PBS. A stock solution of [^3]H-NAD^+ was made by adding 120 μl of [^3H]-NAD^+ (0.1 mCi/ml, supplier: NEN) to 6 ml incubation buffer (50 mM Tris/HCl, pH 8; 0.2 mM DTT; 4 mM MgCl2). A solution of 4 mM NAD^+ (supplier: Roche) was made in incubation buffer (from a 100 mM stock solution in water stored at −20° C.). The PARP-1 enzyme was produced using art known techniques, i.e. cloning and expression of the protein starting from human liver cDNA. Information concerning the used protein sequence of the PARP-1 enzyme including literature references can be found in the Swiss-Prot database under primary accession number P09874. Biotinylated histones and PVT-SPA beads were mixed and pre-incubated for 30 min. at room temperature. PARP-1 enzyme (concentration was lot dependent) was mixed with the nicked DNA and the mixture was pre-incubated for 30 min. at 4° C. Equal parts of this histones/PVT-SPA beads solution and PARP-1 enzyme/DNA solution were mixed and 75 μl of this mixture together with 1 μl of compound in DMSO and 25 μl of [^3H]-NAD^+ was added per well into a 96-well microtiterplate. The final concentrations in the incubation mixture were 2 μg/ml for the biotinylated histones, 2 mg/ml for the PVT-SPA beads, 2 μg/ml for the nicked DNA and between 5-10 μg/ml for the PARP-1 enzyme. After incubation of the mixture for 15 min. at room temperature, the reaction was terminated by adding 100 μl of 4 mM NAD^+ in incubation buffer (final concentration 2 mM) and plates were mixed.
The beads were allowed to sediment for at least 15 min. and plates transferred to a TopCountNXT™ (Packard) for scintillation counting, values were expressed as counts per minute (cpm). For each experiment, controls (containing PARP-1 enzyme and DMSO without compound), a blank incubation (containing DMSO but no PARP-1 enzyme or compound) and samples (containing PARP-1 enzyme and compound dissolved in DMSO) were run in parallel. All compounds tested were dissolved and eventually further diluted in DMSO. In first instance, compounds were tested at a concentration of 10^−5 M or 10^−6M. […] In each test, the blank value was subtracted from both the control and the sample values. The control sample represented maximal PARP-1 enzyme activity. For each sample, the amount of cpm was expressed as a percentage of the mean cpm value of the controls. When appropriate, IC50-values (concentration of the drug, needed to reduce the PARP-1 enzyme activity to 50% of the control) were computed using linear interpolation between the experimental points just above and below the 50% level. […]

[2] = target: T1, PARP-1 enzyme; experiment: In vitro filtration assay for PARP-1 inhibitory activity; assay type: biochemical; details: nicked DNA activated PARP-1, [32P]-NAD, histones; read-out: In vitro filtration assay pIC50 (converted)
Method: Compounds of the present invention were tested in an in vitro filtration assay assessing PARP-1 activity (triggered in the presence of nicked DNA) by means of its histone poly (ADP-ribosyl)ation activity using [^32P]-NAD as ADP-ribosyl donor. The radioactive ribosylated histones were precipitated by trichloroacetic acid (TCA) in 96-well filterplates and the incorporated [^32P] measured using a scintillation counter
A mixture of histones (stock solution: 5 mg/ml in H2O), NAD (stock solution: 100 mM in H2O), and [^32P]-NAD^+ in incubation buffer (50 mM Tris/HCl, pH 8; 0.2 mM DTT; 4 mM MgCl2) was made. A mixture of the PARP-1 enzyme (5-10 μg/ml) and nicked DNA was also made. The nicked DNA was prepared as described in the in vitro SPA for PARP-1 inhibitory activity. Seventy-five μl of the PARP-1 enzyme/DNA mixture together with 1 μl of compound in DMSO and 25 μl of histones-NAD^+/[^32P]-NAD^+ mixture was added per well of a 96-well filterplate (0.45 μm, supplier Millipore). The final concentrations in the incubation mixture were 2 μg/ml for the histones, 0.1 mM for the NAD^+, […] (0.5 μC) for the [^32P]-NAD^+ and 2 μg/ml for the nicked DNA. Plates were incubated for 15 min. at room temperature and the reaction was terminated by the addition of 10 μl ice cold 100% TCA followed by the addition of 10 μl ice-cold BSA solution (1% in H2O). The protein fraction was allowed to precipitate for 10 min. at 4° C. and plates were vacuum filtered. The plates were subsequently washed with, for each well, 1 ml of 10% ice cold TCA, 1 ml of 5% ice cold TCA and 1 ml of 5% TCA at room temperature. Finally 100 μl of scintillation solution (Microscint 40, Packard) was added to each well and the plates were transferred to a TopCountNXT™ (supplier: Packard) for scintillation counting and values were expressed as counts per minute (cpm). For each experiment, controls (containing PARP-1 enzyme and DMSO without compound), a blank incubation (containing DMSO but no PARP-1 enzyme or compound) and samples (containing PARP-1 enzyme and compound dissolved in DMSO) were run in parallel. All compounds tested were dissolved and eventually further diluted in DMSO. In first instance, compounds were tested at a concentration of 10^−5M. […] In each test, the blank value was subtracted from both the control and the sample values. The control sample represented maximal PARP-1 enzyme activity. For each sample, the amount of cpm was expressed as a percentage of the mean cpm value of the controls. When appropriate, IC50-values (concentration of the drug, needed to reduce the PARP-1 enzyme activity to 50% of the control) were computed using linear interpolation between the experimental points just above and below the 50% level. Herein the effects of test compounds are expressed as pIC50 (the negative log value of the IC50-value). As a reference compound, 4-amino-1,8-naphthalimide was included to validate the filtration assay.

T1 sequence (P09874 whole entry): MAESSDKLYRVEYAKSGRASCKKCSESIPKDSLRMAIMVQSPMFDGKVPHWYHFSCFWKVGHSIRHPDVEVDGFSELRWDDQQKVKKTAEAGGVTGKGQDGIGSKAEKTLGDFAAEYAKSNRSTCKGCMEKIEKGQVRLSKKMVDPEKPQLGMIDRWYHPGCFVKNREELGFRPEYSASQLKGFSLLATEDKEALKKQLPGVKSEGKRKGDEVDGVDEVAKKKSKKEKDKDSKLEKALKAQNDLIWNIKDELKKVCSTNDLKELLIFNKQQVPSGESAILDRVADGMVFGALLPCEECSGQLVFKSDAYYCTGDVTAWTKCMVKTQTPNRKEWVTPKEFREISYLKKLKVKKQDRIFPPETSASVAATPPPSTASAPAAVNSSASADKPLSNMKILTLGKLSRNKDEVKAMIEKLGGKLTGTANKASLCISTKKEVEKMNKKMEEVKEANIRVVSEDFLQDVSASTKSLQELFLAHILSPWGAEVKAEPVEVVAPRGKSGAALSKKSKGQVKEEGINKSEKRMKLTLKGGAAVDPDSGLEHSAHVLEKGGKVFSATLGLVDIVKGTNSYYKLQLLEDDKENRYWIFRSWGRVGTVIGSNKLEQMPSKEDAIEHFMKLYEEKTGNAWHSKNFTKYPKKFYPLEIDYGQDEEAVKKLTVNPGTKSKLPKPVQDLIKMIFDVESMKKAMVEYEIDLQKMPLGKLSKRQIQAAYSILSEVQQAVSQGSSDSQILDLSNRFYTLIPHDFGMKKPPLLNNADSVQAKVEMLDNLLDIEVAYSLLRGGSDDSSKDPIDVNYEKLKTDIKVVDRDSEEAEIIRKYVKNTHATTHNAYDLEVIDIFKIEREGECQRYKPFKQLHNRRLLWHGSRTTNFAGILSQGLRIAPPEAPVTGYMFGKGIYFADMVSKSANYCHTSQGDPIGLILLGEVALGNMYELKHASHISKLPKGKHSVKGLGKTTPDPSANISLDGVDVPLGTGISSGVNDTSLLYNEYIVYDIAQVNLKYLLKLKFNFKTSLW

Row | IC50 [1] | IC50 [2] | SMILES
1 | 796 nM | 4780 nM | Cc1cc2cc(C(NCCO)c3ccccc3)ccc2[nH]c1=O (stereo not drawn) [Compound 29]
2 | 211 nM | 2100 nM | CCc1cc2cc(C(c3cccc(C(F)(F)F)c3)n3cnnc3)ccc2[nH]c1=O (stereo not drawn) [Compound 72]
3 | 877 nM | 2700 nM | CCc1nc2cc(C(c3ccc(Cl)cc3)n3cnc(C)c3)ccc2[nH]c1=O (stereo not drawn) [Compound 122]
4 | 1410 nM | 3270 nM | Cc1cc2cc(C(NCCCc3cccs3)c3ccccc3)ccc2[nH]c1=O (stereo not drawn) [Compound 23]
5 | 773 nM | 2840 nM | COc1cccc(C(NC=O)c2ccc3[nH]c(=O)c(C)cc3c2)c1 (stereo not drawn) [Compound 101]
6 | 902 nM | 7730 nM | Cc1cc2cc(CCC(NC=O)c3ccccc3)ccc2[nH]c1=O (stereo not drawn) [Compound 103]
7 | 589 nM | 4950 nM | CCc1cc2cc(C(c3cccc(C(F)(F)F)c3)N3CCC(NCCOC)CC3)ccc2[nH]c1=O (stereo not drawn) [Compound 87]
8 | 612 nM | 3300 nM | CCc1nc2cc(C(c3cccc(Cl)c3)n3ccnc3)ccc2[nH]c1=O (stereo not drawn) [Compound 123]
9 | 302 nM | 1170 nM | CCc1cc2cc(C(c3cccc(C(F)(F)F)c3)N3CCC(=O)CC3)ccc2[nH]c1=O (stereo not drawn) [Compound 37]
10 | 755 nM | 2320 nM | CCOC(=O)c1ccc(C(O)c2ccc3[nH]c(=O)c(C)cc3c2)cc1 (stereo not drawn) [Compound 109]
11 | 678 nM | – | CCc1nc2cc(C(NCCN3CCC(C(=O)c4ccc(F)cc4)CC3)c3ccccc3)ccc2[nH]c1=O (stereo not drawn) [Compound 50]

Continued, molecule first:

Row | SMILES | IC50 [1] | IC50 [2]
12 | CCc1cc2cc(C(CCN(C)C)c3cccc(C(F)(F)F)c3)ccc2[nH]c1=O (stereo not drawn) [Compound 91] | 187 nM | 828 nM
13 | Cc1cc2cc(C(NC(=O)NCCCN3CCCCC3)c3ccccc3)ccc2[nH]c1=O (stereo not drawn) [Compound 7] | 1430 nM | 7330 nM
14 | CCc1cc2cc(C(c3ccc(Cl)cc3)N3CCC(=O)CC3)ccc2[nH]c1=O (stereo not drawn) [Compound 38] | 316 nM | 2650 nM
15 | CCc1cc2cc(C(NC=O)c3ccccc3)ccc2[nH]c1=O (stereo not drawn) [Compound 96] | 69.8 nM | 352 nM
16 | Cc1cc2cc(C(NCCC(=O)c3ccccc3)c3ccccc3)ccc2[nH]c1=O (stereo not drawn) [Compound 27] | 925 nM | 2330 nM
17 | CCc1cc2cc(C(c3ccccc3)N3CCC(=O)CC3)ccc2[nH]c1=O (stereo not drawn) [Compound 81] | 305 nM | 3970 nM
18 | Cc1cc2cc(C(NC=O)c3ccc4c(c3)OCO4)ccc2[nH]c1=O (stereo not drawn) [Compound 99] | 289 nM | 1470 nM
19 | CCc1cc2cc(C(c3cccc(C(F)(F)F)c3)N3CCN(C)CC3)ccc2[nH]c1=O (stereo not drawn) [Compound 80] | 692 nM | 3910 nM
20 | CCc1cc2cc(C(NCCCN3CCCCC3)c3ccccc3)ccc2[nH]c1=O (stereo not drawn) [Compound 26] | 119 nM | 918 nM
21 | CCc1nc2cc(C(c3cccc(F)c3)n3ccnc3)ccc2[nH]c1=O (stereo not drawn) [Compound 115] | 818 nM | 3440 nM
22 | CCc1cc2cc(C(O)c3ccccc3)ccc2[nH]c1=O (stereo not drawn) [Compound 110] | 277 nM | 2580 nM
23 | COc1ccc(C(c2ccc3[nH]c(=O)c(C)nc3c2)n2ccnc2)cc1 (stereo not drawn) [Compound 128, 6-[(1H-imidazol-1-yl)(4-methoxyphenyl)methyl]-3-methyl-2(1H)-quinoxalinone] | 361 nM | 2300 nM
24 | CCOC(=O)c1ccc(C(NC=O)c2ccc3[nH]c(=O)c(C)cc3c2)cc1 (stereo not drawn) [Compound 100] | 502 nM | 3510 nM
25 | COc1cccc(C(O)c2ccc3[nH]c(=O)c(C)cc3c2)c1 (stereo not drawn) [Compound 107] | 841 nM | 10000 nM
26 | CCc1nc2cc(C(c3ccc(F)cc3)n3ccnc3)ccc2[nH]c1=O (stereo not drawn) [Compound 125] | 711 nM | 5610 nM
27 | CCc1nc2cc(C(c3ccccc3)n3ccnc3)ccc2[nH]c1=O (stereo not drawn) [Compound 127, 3-ethyl-6-(1H-imidazol-1-ylphenylmethyl)-2(1H)-quinoxalinone] | 1110 nM | 3660 nM
28 | CCc1cc2cc(C(CCN(C)C)c3ccccc3)ccc2[nH]c1=O (stereo not drawn) [Compound 92] | 105 nM | 1180 nM
29 | Cc1cc2cc(/C(=C/CN(C)C)c3cccc4[nH]c(=O)c(C)cc34)ccc2[nH]c1=O [Compound 135] | 794 nM | 4180 nM
30 | O=c1[nH]c2ccc(C(NCCN3CCC(c4n[nH]c5cc(F)ccc45)CC3)c3cccc(C(F)(F)F)c3)cc2c2ccccc12 (stereo not drawn) [Compound 47] | 516 nM | –
31 | CCc1cc2cc(C(=C3CCN(CC(O)COc4ccc(F)cc4)CC3)c3ccc4c(c3)OCCO4)ccc2[nH]c1=O (stereo not drawn) [Compound 143] | 157 nM | –
32 | COCCNC1CCN(C(c2cccc(C(F)(F)F)c2)c2ccc3[nH]c(=O)c4ccccc4c3c2)CC1 (stereo not drawn) [Compound 48] | 190 nM | –
33 | CCc1cc2cc(C(c3ccc(F)cc3)N3CCC(NCCOC)CC3)ccc2[nH]c1=O (stereo not drawn) [Compound 67] | 208 nM | –
34 | CCc1cc2cc(C(c3ccc4c(c3)OCCO4)N3CCC(NCCOC)CC3)ccc2[nH]c1=O (stereo not drawn) [Compound 33] | 25.7 nM | –
35 | CCc1cc2cc(C(c3ccc4c(c3)OCCO4)N3CCC(CCN4CCCCC4)CC3)ccc2[nH]c1=O (stereo not drawn) [Compound 31] | 21.3 nM | –
